Assay: Further oral pharmacokinetic study in female Balb/c mice, 5, 10 and 20 mg/kg
Conditions: mouse, plasma; for half-life: t½
[1] = 5 mg/kg, Mean, 5 mg/kg single oral dose
[2] = 5 mg/kg, Median, 5 mg/kg single oral dose
[3] = 10 mg/kg, Mean, 10 mg/kg single oral dose
[4] = 10 mg/kg, Median, 10 mg/kg single oral dose
[5] = 20 mg/kg, Mean, 20 mg/kg single oral dose
[6] = 20 mg/kg, Median, 20 mg/kg single oral dose

AUC(0-t) (5 mg/kg, AUC 0-24, Mean, 5 mg/kg single oral dose): 4690 ng·h/mL
AUC(0-t) (5 mg/kg, AUC 0-24, Median, 5 mg/kg single oral dose): 4310 ng·h/mL
Cmax [1]: 1850 ng/mL
Cmax [2]: 1800 ng/mL
Tmax [1]: 1.2 h
Tmax [2]: 1 h
half-life [1]: 1.17 h
half-life [2]: 1.12 h
AUC(0-t) (10 mg/kg, AUC 0-24, Mean, 10 mg/kg single oral dose): 7580 ng·h/mL
AUC(0-t) (10 mg/kg, AUC 0-24, Median, 10 mg/kg single oral dose): 7590 ng·h/mL
Cmax [3]: 2630 ng/mL
Cmax [4]: 2420 ng/mL
Tmax [3]: 1.25 h
Tmax [4]: 1 h
half-life [3]: 1.42 h
half-life [4]: 1.53 h
AUC(0-t) (20 mg/kg, AUC 0-24, Mean, 20 mg/kg single oral dose): 20100 ng·h/mL
AUC(0-t) (20 mg/kg, AUC 0-24, Median, 20 mg/kg single oral dose): 21700 ng·h/mL
Cmax [5]: 5360 ng/mL
Cmax [6]: 5660 ng/mL
Tmax [5]: 1.1 h
Tmax [6]: 1 h
half-life [5]: 2.46 h
half-life [6]: 2.46 h
Compound: CC[C@H]1OC(=O)[C@@](C)(F)C(=O)[C@H](C)[C@@H](O[C@@H]2O[C@H](C)C[C@H](N(C)C)[C@H]2O)[C@](C)(OC)C[C@@H](C)C(=O)[C@H](C)[C@H]2N(CCCCn3cc(-c4cccc(N)c4)nn3)C(=O)O[C@]12C [Form II, solithromycin]
